Patent publication US12134610B2, “Somatostatin subtype-2 receptor (SST2R) targeted therapeutics and uses thereof” (priority 2022, dated 2024)
Like-named read-outs stand apart in the source and are kept apart here. Starred links: 1 amine or outer side, 2 acyl side, 3 side chain; linkers in the order of their positions; H or OH if unused. Non-standard residues stand in square brackets, D forms with d. Residues, ends and D or L forms follow the SMILES beside them. *: point of attachment. X1 = Cc1cc(F)cc(-c2cnc(NCCNC(=O)CCOCCC(=O)*)c(-c3nc4ccc(Cl)cc4[nH]3)c2N2CCC(N)CC2)c1; X3 = Cc1cc(F)cc(-c2cnc(NCCN*)c(-c3nc4ccc(Cl)cc4[nH]3)c2N2CCC(N)CC2)c1; Dolaproine = CO[C@@H]([C@@H]1CCCN1)[C@@H](C)C(=O)O; Dil = CC[C@H](C)[C@H](NC)[C@@H](CC(=O)O)OC; PABC = O=C(OCc1ccc(N[*:1])cc1)[*:2]; Glutaryl = O=C(CCCC(=O)[*:2])[*:1]; X2 = C[C@@H](N*)[C@@H](O)c1ccccc1; dCya = N[C@H](CS(=O)(=O)O)C(=O)O; Cit = NC(=O)NCCC[C@H](N)C(=O)O; NMeV = CN[C@H](C(=O)O)C(C)C; Sar = CNCC(=O)O

Experiments:
Assay type in all cases: cell-based
[1] = test system: NCI-H524 (ATCC) human small cell lung cancer cells
Summary of the method: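 NCI-H524 cells (5,000/well) were exposed 24 h after plating to SMDC for 2 h, 11-point two-fold series from 1 uM. After washout they grew a further 70 h. Proliferation was read by CellTiter-Glo luminescence, % inhibition taken vs untreated control, and IC50 fitted by four-parameter nonlinear regression.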

[2] = biological target: T1, human somatostatin receptor subtype 2 (Homo sapiens, UniProt P30874); assay: Functional cAMP assay for SSTR2 agonists (HTRF) in CHO-K1 cells; conditions: CHO-K1 cells stably expressing human SST2, 20 min
T1 construct: expressed in transfected cells
T1 sequence (P30874 whole entry): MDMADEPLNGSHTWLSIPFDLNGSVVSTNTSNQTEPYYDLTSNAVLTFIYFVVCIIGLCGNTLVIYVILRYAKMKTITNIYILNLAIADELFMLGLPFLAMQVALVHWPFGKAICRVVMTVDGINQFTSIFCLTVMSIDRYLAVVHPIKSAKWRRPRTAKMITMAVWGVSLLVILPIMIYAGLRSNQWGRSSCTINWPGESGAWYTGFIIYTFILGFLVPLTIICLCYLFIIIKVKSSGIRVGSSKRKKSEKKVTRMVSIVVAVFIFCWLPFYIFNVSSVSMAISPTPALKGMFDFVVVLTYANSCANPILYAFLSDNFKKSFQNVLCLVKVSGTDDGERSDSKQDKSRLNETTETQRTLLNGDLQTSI
Summary of the method: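 CHO-K1 cells stably expressing receptor, plated 4 days before assay, treated 20 min at 37° C. with compound (typically 0-10,000 nM final) plus IBMX and 1.6 μM NKH477 to raise cAMP. HTRF read, 665/620 nm ratio; cAMP from standard curve, EC50 fitted.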

SST2 = biological target: T2, SST2 (Homo sapiens, UniProt P30874); assay: PathHunter CHO-K1 SST2 internalization assay; conditions: PathHunter CHO-K1 SST2, 90 min
T2 construct: host or cells: PathHunter CHO-K1 SST2 cells
T2 sequence (P30874 whole entry): as above
Summary of the method: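 PathHunter CHO-K1 SST2 cells, seeded and grown 48 h, were exposed to 11-point 1:3 dilutions of SMDC (top final 10 uM) for 90 min at 37 C, 5% CO2. Beta-Glo luminescence was read after 60 min at room temperature. Background-corrected duplicate means were fitted by four-parameter nonlinear regression to give IC50.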

Row | SMILES | EC50 ([1]; 2 h) | EC50 ([2]; read-out: hSST2 cAMP Avg EC50) | EC50 (SST2; read-out: Internalization EC50) | EC50 ([1]; 2 h treatment, washout, additional 70 h, read-out: H524 EC50) | EC50 ([2]; hSST2 cAMP Avg EC50 (nM)) | EC50 (SST2; Internalization EC50 (nM))
1 | CC[C@H](C)[C@@H]([C@@H](CC(=O)N1CCC[C@H]1[C@H](OC)[C@@H](C)C(=O)N[C@H](C)[C@@H](O)c1ccccc1)OC)N(C)C(=O)[C@@H](NC(=O)[C@H](C(C)C)N(C)C(=O)OCc1ccc(NC(=O)[C@H](CCCNC(N)=O)NC(=O)[C@@H](NC(=O)CCCC(=O)N(C)CC(=O)NCCNc2ncc(-c3cc(C)cc(F)c3)c(N3CCC(N)CC3)c2-c2nc3ccc(Cl)cc3[nH]2)C(C)C)c(O[C@@H]2O[C@H](C(=O)O)[C@@H](O)[C@H](O)[C@H]2O)c1)C(C)C [Compound 141] | 11 nM | 0.22 nM | 2.3 nM |  |  | 
2 | CC[C@H](C)[C@@H]([C@@H](CC(=O)N1CCC[C@H]1[C@H](OC)[C@@H](C)C(=O)N[C@H](C)[C@@H](O)c1ccccc1)OC)N(C)C(=O)[C@@H](NC(=O)[C@H](C(C)C)N(C)C(=O)OCc1ccc(NC(=O)[C@H](CCCNC(N)=O)NC(=O)[C@@H](NC(=O)[C@H](CCC(N)=O)NC(=O)CCOCCOCCOCCOCCC(=O)NCCNc2ncc(-c3cc(C)cc(F)c3)c(N3CCC(N)CC3)c2-c2nc3ccc(Cl)cc3[nH]2)C(C)C)cc1C(=O)NC)C(C)C [Compound 60] | 35 nM | 0.1 nM | 13 nM |  |  | 
3 | CC[C@H](C)[C@@H]([C@@H](CC(=O)N1CCC[C@H]1[C@H](OC)[C@@H](C)C(=O)N[C@H](C)[C@@H](O)c1ccccc1)OC)N(C)C(=O)[C@@H](NC(=O)[C@H](C(C)C)N(C)C(=O)OCc1ccc(NC(=O)[C@H](CCCNC(N)=O)NC(=O)[C@@H](NC(=O)CCOCCC(=O)NCCNc2ncc(-c3cc(C)cc(F)c3)c(N3CCC(N)CC3)c2-c2nc3ccc(Cl)cc3[nH]2)C(C)C)cc1C(=O)NCCN)C(C)C [Compound 82] | 0.79 nM | 0.31 nM | 6 nM |  |  | 
4 | CC[C@H](C)[C@@H]([C@@H](CC(=O)N1CCC[C@H]1[C@H](OC)[C@@H](C)C(=O)N[C@H](C)[C@@H](O)c1ccccc1)OC)N(C)C(=O)[C@@H](NC(=O)[C@H](C(C)C)N(C)C(=O)OCc1ccc(NC(=O)[C@H](CCCNC(N)=O)NC(=O)[C@@H](NC(=O)CCOCCNCCNc2ncc(-c3cc(C)cc(F)c3)c(N3CCC(N)CC3)c2-c2nc3ccc(Cl)cc3[nH]2)C(C)C)c(O[C@@H]2O[C@H](C(=O)O)[C@@H](O)[C@H](O)[C@H]2O)c1)C(C)C [Compound 128] | 31 nM | 0.18 nM | 8.7 nM |  |  | 
5 | CC[C@H](C)[C@@H]([C@@H](CC(=O)N1CCC[C@H]1[C@H](OC)[C@@H](C)C(=O)N[C@H](C)[C@@H](O)c1ccccc1)OC)N(C)C(=O)[C@@H](NC(=O)[C@H](C(C)C)N(C)C(=O)OCc1ccc(NC(=O)[C@H](CCCNC(N)=O)NC(=O)[C@@H](NC(=O)[C@H](CCC(N)=O)NC(=O)CCOCCOCCOCCOCCC(=O)NCCNc2ncc(-c3cc(C)cc(F)c3)c(N3CCC(N)CC3)c2-c2nc3ccc(Cl)cc3[nH]2)C(C)C)cc1C(=O)NCCN)C(C)C [Compound 58] | 11 nM | 0.37 nM | 5 nM |  |  | 
6 | CCC(C)C(C(CC(=O)N1CCCC1C(OC)C(C)C(=O)NC(C)C(O)c1ccccc1)OC)N(C)C(=O)C(NC(=O)C(C(C)C)N(C)C(=O)OCc1ccc(NC(=O)[C@H](CCCNC(N)=O)NC(=O)[C@@H](NC(=O)CCOCCOCCOCCOCCC(=O)NCCNc2ncc(-c3cc(C)cc(F)c3)c(N3CCC(NC)CC3)c2-c2nc3ccc(Cl)cc3[nH]2)C(C)C)cc1)C(C)C (stereo in doubt) [Compound 41] | 27.8 nM | 0.48 nM | 24.6 nM |  |  | 
7 | CC[C@H](C)[C@@H]([C@@H](CC(=O)N1CCC[C@H]1[C@H](OC)[C@@H](C)C(=O)N[C@H](C)[C@@H](O)c1ccccc1)OC)N(C)C(=O)[C@@H](NC(=O)[C@H](C(C)C)N(C)C(=O)OCc1ccc(NC(=O)[C@H](CCCNC(N)=O)NC(=O)[C@@H](NC(=O)CCCCC(=O)NCCNc2ncc(-c3cc(C)cc(F)c3)c(N3CCC(N)CC3)c2-c2nc3ccc(Cl)cc3[nH]2)C(C)C)c(O[C@@H]2O[C@H](C(=O)O)[C@@H](O)[C@H](O)[C@H]2O)c1)C(C)C [Compound 63] | 13 nM | 0.16 nM | 16 nM |  |  | 
8 | CC[C@H](C)[C@@H]([C@@H](CC(=O)N1CCC[C@H]1[C@H](OC)[C@@H](C)C(=O)N[C@H](C)[C@@H](O)c1ccccc1)OC)N(C)C(=O)[C@@H](NC(=O)[C@H](C(C)C)N(C)C(=O)OCc1ccc(NC(=O)[C@H](CCCNC(N)=O)NC(=O)[C@@H](NC(=O)[C@@H](CS(=O)(=O)O)NC(=O)CCOCCC(=O)NCCNc2ncc(-c3cc(C)cc(F)c3)c(N3CCC(N)CC3)c2-c2nc3ccc(Cl)cc3[nH]2)C(C)C)cc1)C(C)C [Compound 104] (X1-[dCya]V[Cit][PABC][NMeV]V[Dil][Dolaproine]-X2) | 24 nM | 0.062 nM | 2.8 nM |  |  | 
9 | CC[C@H](C)[C@@H]([C@@H](CC(=O)N1CCC[C@H]1[C@H](OC)[C@@H](C)C(=O)N[C@H](C)[C@@H](O)c1ccccc1)OC)N(C)C(=O)[C@@H](NC(=O)[C@H](C(C)C)N(C)C(=O)OCc1ccc(NC(=O)[C@H](C)NC(=O)[C@@H](NC(=O)CCCC(=O)N(C)CC(=O)NCCNc2ncc(-c3cc(C)cc(F)c3)c(N3CCC(N)CC3)c2-c2nc3ccc(Cl)cc3[nH]2)C(C)C)c(O[C@@H]2O[C@H](C(=O)O)[C@@H](O)[C@H](O)[C@H]2O)c1)C(C)C [Compound 140] | 5.4 nM | 0.33 nM | 1.8 nM |  |  | 
10 | CC[C@H](C)[C@@H]([C@@H](CC(=O)N1CCC[C@H]1[C@H](OC)[C@@H](C)C(=O)N[C@H](C)[C@@H](O)c1ccccc1)OC)N(C)C(=O)[C@@H](NC(=O)[C@H](C(C)C)N(C)C(=O)OCc1ccc(NC(=O)[C@H](CCCNC(N)=O)NC(=O)[C@@H](NC(=O)CN2CCN(CC(=O)O)CCN(CC(=O)NCCNc3ncc(-c4cc(C)cc(F)c4)c(N4CCC(N)CC4)c3-c3nc4ccc(Cl)cc4[nH]3)CC2)C(C)C)cc1)C(C)C [Compound 33] | 274 nM | 0.63 nM | 34.9 nM |  |  | 
11 | CC[C@H](C)[C@@H]([C@@H](CC(=O)N1CCC[C@H]1[C@H](OC)[C@@H](C)C(=O)N[C@H](C)[C@@H](O)c1ccccc1)OC)N(C)C(=O)[C@@H](NC(=O)[C@H](C(C)C)N(C)C(=O)OCc1ccc(NC(=O)[C@H](CCCNC(N)=O)NC(=O)[C@@H](NC(=O)[C@@H](CCC(=O)O)NC(=O)[C@@H](CCC(=O)O)NC(=O)CCOCCC(=O)NCCNc2ncc(-c3cc(C)cc(F)c3)c(N3CCC(N)CC3)c2-c2nc3ccc(Cl)cc3[nH]2)C(C)C)cc1)C(C)C [Compound 103] (X1-[dE][dE]V[Cit][PABC][NMeV]V[Dil][Dolaproine]-X2) | 620 nM | 0.26 nM | 24 nM |  |  | 
12 | CCC(C)C(C(CC(=O)N1CCCC1C(OC)C(C)C(=O)NC(C)C(O)c1ccccc1)OC)N(C)C(=O)C(NC(=O)C(C(C)C)N(C)C(=O)OCc1ccc(NC(=O)[C@H](CCCNC(N)=O)NC(=O)[C@@H](NC(=O)CCOCCOCCC(=O)NCCNc2ncc(-c3cc(C)cc(F)c3)c(N3CCC(N)CC3)c2-c2nc3ccc(Cl)cc3[nH]2)C(C)C)cc1)C(C)C (stereo in doubt) [Compound 24] | 13.4 nM | 0.2 nM | 12 nM |  |  | 
13 | CC[C@H](C)[C@@H]([C@@H](CC(=O)N1CCC[C@H]1[C@H](OC)[C@@H](C)C(=O)N[C@H](C)[C@@H](O)c1ccccc1)OC)N(C)C(=O)[C@@H](NC(=O)[C@H](C(C)C)N(C)C(=O)OCc1ccc(NC(=O)[C@H](CCCNC(N)=O)NC(=O)[C@@H](NC(=O)CNC(=O)[C@H](CCC(=O)O)NC(=O)[C@H](CCC(=O)O)NC(=O)CCOCCC(=O)NCCNc2ncc(-c3cc(C)cc(F)c3)c(N3CCC(N)CC3)c2-c2nc3ccc(Cl)cc3[nH]2)C(C)C)cc1)C(C)C [Compound 111] (X1-EEGV[Cit][PABC][NMeV]V[Dil][Dolaproine]-X2) | 360 nM | 1.2 nM | 22 nM |  |  | 
14 | CC[C@H](C)[C@@H]([C@@H](CC(=O)N1CCC[C@H]1[C@H](OC)[C@@H](C)C(=O)N[C@H](C)[C@@H](O)c1ccccc1)OC)N(C)C(=O)[C@@H](NC(=O)[C@H](C(C)C)N(C)C(=O)OCc1ccc(NC(=O)[C@H](C)NC(=O)[C@@H](NC(=O)CCOCCNCCNc2ncc(-c3cc(C)cc(F)c3)c(N3CCC(N)CC3)c2-c2nc3ccc(Cl)cc3[nH]2)C(C)C)c(O[C@@H]2O[C@H](C(=O)O)[C@@H](O)[C@H](O)[C@H]2O)c1)C(C)C [Compound 130] | 140 nM | 0.29 nM | 25 nM |  |  | 
15 | CC[C@H](C)[C@@H]([C@@H](CC(=O)N1CCC[C@H]1[C@H](OC)[C@@H](C)C(=O)N[C@H](C)[C@@H](O)c1ccccc1)OC)N(C)C(=O)[C@@H](NC(=O)[C@H](C(C)C)N(C)C(=O)OCc1ccc(NC(=O)[C@H](CCCNC(N)=O)NC(=O)[C@@H](NC(=O)CCCC(=O)N(C)CC(=O)NCCNc2ncc(-c3cc(C)cc(F)c3)c(N3CCC(N)CC3)c2-c2nc3ccc(Cl)cc3[nH]2)C(C)C)cc1)C(C)C [Compound 95] ({X3-Sar-Glutaryl}-V[Cit][PABC][NMeV]V[Dil][Dolaproine]-X2) | 5.1 nM | 0.26 nM | 2.2 nM |  |  | 
16 | CC[C@@]1(O)C(=O)OCc2c1cc1n(c2=O)Cc2c-1nc1cc(F)c(C)c3c1c2[C@@H](NC(=O)OCc1ccc(NC(=O)[C@H](CCCNC(N)=O)NC(=O)[C@@H](NC(=O)CCOCCC(=O)NCCNc2ncc(-c4cc(C)cc(F)c4)c(N4CCC(N)CC4)c2-c2nc4ccc(Cl)cc4[nH]2)C(C)C)cc1C(=O)NCCN)CC3 [Compound 90] |  |  |  | 71 nM | 0.22 nM | 4.8 nM
